Data reported in article PMC12824250 (Nature Communications, 2025).
pEC50: −log10 of the molar value.

Tests used:
[1] = tested on: rdMPXV^Δ96,158; experiment: microbe, parasite or virus in culture; assay type: cell-based; details: Monkeypox virus, 30 h
[2] = tested on: rdMPXV^Δ96,158; assay type: cell-based
[3] = tested on: VACV; details: cited from earlier work
[4] = tested on: VACV; details: in vivo; cited from earlier work

Row | SMILES | pEC50 [1] | Gaussia luciferase activity [2] | mean fluorescence intensity of mGreen-positive cells [2] | cytopathic effect (CPE) inhibition [3] | protection from VACV infection [4]
1 | Nc1ccn(C[C@@H](CO)OCP(=O)(O)O)c(=O)n1 [Cidofovir] | 4.98 | reduced Gaussia luciferase activity | showed decreased intensity |  | 
2 | Cc1cc(C(=O)NNC(=O)c2ccncc2)ccc1Cl [IMCBH, N1-isonicotinoly-N2-3-methyl-4-chlorobenzoylhydrazine] |  |  |  | complete cytopathic effect (CPE) inhibition | failed to protect
